In patent US9028856B2, “Synergistic pesticide compositions” (priority 2008, dated 2015):

Tested on: tropical house mosquito Culex quinquefasciatus (adults, 3 days old)
Experiment: Efficacy of formulations on surfaces (glazed/unglazed tiles, plywood), ten 3 day old mosquitoes, 3 min exposure
Assay type: in vivo
Method: The ingredients were diluted in acetone to give a concentration which corresponds to the desired quantity of a.i./m^2. A 1 ml quantity of the solution was applied by pipette onto the 15 cm×15 cm surfaces without treating the outer edge of 1 cm.
Ten 3 day old Culex quinquefasciatus mosquitoes were exposed to each treatment for 3 minutes under a perforated petri dish, and then a clean untreated white paper index card was moved between treated surface and petri dish. A water-soaked cotton pad was applied immediately after.
Each test consisted of three replicates (three batches of ten mosquitoes were exposed for three minutes to the same surface, each one hour later), of which the mean values are calculated.
The test insects were Culex quinquefasciatus (adults, 3 days old). The compositions were evaluated for their ability to provide effective knock down after 3, 9, 15, and 30 minutes, 1, 2, 3, 4 and 24 hours (mortality). The experiments were performed in triplicate on glazed tile, but not repeated on wood.
Test Insects are Culex quinquefasciatus (adults, 3 days old). The Application provides the technical compounds were dissolved in acetone and applied as 1 ml solutions onto glazed tiles (15 cm×15 cm). An evaluation is provided at knock down after 3, 9, 15, and 30 minutes, 1, 2, 3, 4 and 24 hours (mortality). There are 3 replicates.
Test Insects: Culex quinquefasciatus (adults, 3 days old)
Application: The technical compounds were dissolved in acetone and applied as 1 ml solutions onto glazed tiles (15 cm×15 cm).
Evaluation: Knock down after 3, 9, 15, and 30 minutes, 1, 2, 3, 4 and 24 hours (mortality) […]
Application: The active ingredients were applied as 1 ml acetone solutions onto glazed tiles (15 cm×15 cm) […]
For the mosquitoes, the USDA Petri Dish Method is used. Ten 3 day old Culex quinquefasciatus mosquitoes are exposed to each treatment for 3 minutes under a perforated petri dish and then a clean untreated white paper index card is moved between treated surface and petri dish. A water-soaked cotton pad is applied immediately after. […]

[1] = 3′, in acetone on glazed tiles, Table 84
[2] = 9′, in acetone on glazed tiles, Table 84
[3] = 15′, in acetone on glazed tiles, Table 84
[4] = 30′, in acetone on glazed tiles, Table 84
[5] = 1 h, in acetone on glazed tiles, Table 84
[6] = 2 h, in acetone on glazed tiles, Table 84
[7] = 3 h, in acetone on glazed tiles, Table 84
[8] = 4 h, in acetone on glazed tiles, Table 84
[9] = 24 h (mortality), in acetone on glazed tiles, Table 84

## CC1(C)CC(O)CC(C)(C)N1
[1]
  % KD and Mortality: 0%
[2]
  % KD and Mortality: 0%
[3]
  % KD and Mortality: 0%
[4]
  % KD and Mortality: 0%
[5]
  % KD and Mortality: 0%
[6]
  % KD and Mortality: 0%
[7]
  % KD and Mortality: 0%
[8]
  % KD and Mortality: 0%
[9]
  % KD and Mortality: 3%

## CC1(C)CC(O)CC(C)(C)N1[O]
[1]
  % KD and Mortality: 0%
[2]
  % KD and Mortality: 0%
[3]
  % KD and Mortality: 0%
[4]
  % KD and Mortality: 0%
[5]
  % KD and Mortality: 0%
[6]
  % KD and Mortality: 0%
[7]
  % KD and Mortality: 0%
[8]
  % KD and Mortality: 0%
[9]
  % KD and Mortality: 7%

## CCCCCCCCON1C(C)(C)CC(OC(=O)CCCCCCCCC(=O)OC2CC(C)(C)N(OCCCCCCCC)C(C)(C)C2)CC1(C)C
[1]
  % KD and Mortality: 3%
[2]
  % KD and Mortality: 3%
[3]
  % KD and Mortality: 3%
[4]
  % KD and Mortality: 3%
[5]
  % KD and Mortality: 3%
[6]
  % KD and Mortality: 3%
[7]
  % KD and Mortality: 3%
[8]
  % KD and Mortality: 3%
[9]
  % KD and Mortality: 7%

## CC1(C)CC(OC(=O)CCCCCCCCC(=O)OC2CC(C)(C)NC(C)(C)C2)CC(C)(C)N1
[1]
  % KD and Mortality: 0%
[2]
  % KD and Mortality: 0%
[3]
  % KD and Mortality: 0%
[4]
  % KD and Mortality: 0%
[5]
  % KD and Mortality: 3%
[6]
  % KD and Mortality: 0%
[7]
  % KD and Mortality: 3%
[8]
  % KD and Mortality: 3%
[9]
  % KD and Mortality: 17%

## O=C(CCCCCCCCC(=O)ON1C(=O)CCC1=O)ON1C(=O)CCC1=O
[1]
  % KD and Mortality: 0%
[2]
  % KD and Mortality: 0%
[3]
  % KD and Mortality: 0%
[4]
  % KD and Mortality: 0%
[5]
  % KD and Mortality: 0%
[6]
  % KD and Mortality: 0%
[7]
  % KD and Mortality: 0%
[8]
  % KD and Mortality: 0%
[9]
  % KD and Mortality: 0%

## CNC(=O)Oc1cccc2c1OC(C)(C)O2 [0.1% bendiocarb]
[1]
  % KD and Mortality: 0%
3′, solvent 2006-009114 (EC formulation), glazed tiles, Table 83
  % KD and Mortality: 10%
3′, solvent Acetone + 0.05% citric acid, glazed tiles, Table 83
  % KD and Mortality: 13%
3′, solvent Acetone, glazed tiles, Table 83
  % KD and Mortality: 3%
3′, solvent Ethylacetate, glazed tiles, Table 83
  % KD and Mortality: 0%
3′, solvent Methanol, glazed tiles, Table 83
  % KD and Mortality: 0%
[2]
  % KD and Mortality: 0%
9′, solvent 2006-009114 (EC formulation), glazed tiles, Table 83
  % KD and Mortality: 17%
9′, solvent Acetone + 0.05% citric acid, glazed tiles, Table 83
  % KD and Mortality: 33%
9′, solvent Acetone, glazed tiles, Table 83
  % KD and Mortality: 3%
9′, solvent Ethylacetate, glazed tiles, Table 83
  % KD and Mortality: 3%
9′, solvent Methanol, glazed tiles, Table 83
  % KD and Mortality: 0%
[3]
  % KD and Mortality: 3%
15′, solvent 2006-009114 (EC formulation), glazed tiles, Table 83
  % KD and Mortality: 23%
15′, solvent Acetone + 0.05% citric acid, glazed tiles, Table 83
  % KD and Mortality: 70%
15′, solvent Acetone, glazed tiles, Table 83
  % KD and Mortality: 3%
15′, solvent Ethylacetate, glazed tiles, Table 83
  % KD and Mortality: 7%
15′, solvent Methanol, glazed tiles, Table 83
  % KD and Mortality: 0%
[4]
  % KD and Mortality: 17%
30′, solvent 2006-009114 (EC formulation), glazed tiles, Table 83
  % KD and Mortality: 27%
30′, solvent Acetone + 0.05% citric acid, glazed tiles, Table 83
  % KD and Mortality: 97%
30′, solvent Acetone, glazed tiles, Table 83
  % KD and Mortality: 13%
30′, solvent Ethylacetate, glazed tiles, Table 83
  % KD and Mortality: 27%
30′, solvent Methanol, glazed tiles, Table 83
  % KD and Mortality: 13%
[5]
  % KD and Mortality: 50%
1 h, solvent 2006-009114 (EC formulation), glazed tiles, Table 83
  % KD and Mortality: 43%
1 h, solvent Acetone + 0.05% citric acid, glazed tiles, Table 83
  % KD and Mortality: 97%
1 h, solvent Acetone, glazed tiles, Table 83
  % KD and Mortality: 77%
1 h, solvent Ethylacetate, glazed tiles, Table 83
  % KD and Mortality: 50%
1 h, solvent Methanol, glazed tiles, Table 83
  % KD and Mortality: 57%
[6]
  % KD and Mortality: 73%
2 h, solvent 2006-009114 (EC formulation), glazed tiles, Table 83
  % KD and Mortality: 87%
2 h, solvent Acetone + 0.05% citric acid, glazed tiles, Table 83
  % KD and Mortality: 97%
2 h, solvent Acetone, glazed tiles, Table 83
  % KD and Mortality: 100%
2 h, solvent Ethylacetate, glazed tiles, Table 83
  % KD and Mortality: 73%
2 h, solvent Methanol, glazed tiles, Table 83
  % KD and Mortality: 73%
[7]
  % KD and Mortality: 80%
3 h, solvent 2006-009114 (EC formulation), glazed tiles, Table 83
  % KD and Mortality: 93%
3 h, solvent Acetone + 0.05% citric acid, glazed tiles, Table 83
  % KD and Mortality: 100%
3 h, solvent Acetone, glazed tiles, Table 83
  % KD and Mortality: 100%
3 h, solvent Ethylacetate, glazed tiles, Table 83
  % KD and Mortality: 70%
3 h, solvent Methanol, glazed tiles, Table 83
  % KD and Mortality: 73%
[8]
  % KD and Mortality: 90%
4 h, solvent 2006-009114 (EC formulation), glazed tiles, Table 83
  % KD and Mortality: 97%
4 h, solvent Acetone + 0.05% citric acid, glazed tiles, Table 83
  % KD and Mortality: 100%
4 h, solvent Acetone, glazed tiles, Table 83
  % KD and Mortality: 100%
4 h, solvent Ethylacetate, glazed tiles, Table 83
  % KD and Mortality: 80%
4 h, solvent Methanol, glazed tiles, Table 83
  % KD and Mortality: 73%
[9]
  % KD and Mortality: 100%
24 h (mortality), solvent 2006-009114 (EC formulation), glazed tiles, Table 83
  % KD and Mortality: 97%
24 h (mortality), solvent Acetone + 0.05% citric acid, glazed tiles, Table 83
  % KD and Mortality: 100%
24 h (mortality), solvent Acetone, glazed tiles, Table 83
  % KD and Mortality: 100%
24 h (mortality), solvent Ethylacetate, glazed tiles, Table 83
  % KD and Mortality: 80%
24 h (mortality), solvent Methanol, glazed tiles, Table 83
  % KD and Mortality: 87%

## CN1C(C)(C)CC(O)CC1(C)C [1% 1,2,2,6,6-Pentamethyl-4-piperidinol]
[1]
  % KD and Mortality: 0%
[2]
  % KD and Mortality: 0%
[3]
  % KD and Mortality: 0%
[4]
  % KD and Mortality: 0%
[5]
  % KD and Mortality: 0%
[6]
  % KD and Mortality: 0%
[7]
  % KD and Mortality: 0%
[8]
  % KD and Mortality: 0%
[9]
  % KD and Mortality: 0%

## COC(=O)CCCCCCCCC(=O)OC [1% Dimethyl sebacate]
[1]
  % KD and Mortality: 0%
[2]
  % KD and Mortality: 0%
[3]
  % KD and Mortality: 0%
[4]
  % KD and Mortality: 0%
[5]
  % KD and Mortality: 0%
[6]
  % KD and Mortality: 0%
[7]
  % KD and Mortality: 0%
[8]
  % KD and Mortality: 0%
[9]
  % KD and Mortality: 0%

## O=C(CCCCCCCCC(=O)OCc1ccccc1)OCc1ccccc1 [1% Sebacic acid dibenzyl ester]
[1]
  % KD and Mortality: 0%
[2]
  % KD and Mortality: 0%
[3]
  % KD and Mortality: 0%
[4]
  % KD and Mortality: 0%
[5]
  % KD and Mortality: 0%
[6]
  % KD and Mortality: 0%
[7]
  % KD and Mortality: 3%
[8]
  % KD and Mortality: 3%
[9]
  % KD and Mortality: 7%

## O=C(O)CCCCCCCCC(=O)O [1% Sebacic acid]
[1]
  % KD and Mortality: 3%
[2]
  % KD and Mortality: 3%
[3]
  % KD and Mortality: 3%
[4]
  % KD and Mortality: 3%
[5]
  % KD and Mortality: 3%
[6]
  % KD and Mortality: 3%
[7]
  % KD and Mortality: 3%
[8]
  % KD and Mortality: 3%
[9]
  % KD and Mortality: 13%
